Test results as given in US20240189269A1, “PHARMACEUTICAL COMPOSITION FOR SUPPRESSING TMPRSS2 EXPRESSION” (Tokyo Institute of Technology, priority 2021, published 2024).

Tested on: ACE2
Assay: Western blot analysis of amount of ACE2 protein expressed in HepG2 cells
Assay type: cell-based, human
Conditions: compared to control (untreated)
Description: (i) Human liver cancer-derived cell strain HepG2 was cultured for 2 days with Dulbecco's modified Eagle medium (DMEM) comprising 10% fetal bovine serum (FBS) under 5% CO2.
(ii) After 2 days, 5-aminolevulinic acid hydrochloride salt (ALA) was supplemented to the DMEM comprising FBS to a final concentration of 1 mM, and the cells of (i) were cultured in said medium at 37° C. for 48 hours. Note that those without any supplements was set as the control.
(iii) After 48 hours, the cell supernatant was discarded, the cells were washed with PBS, and then Lysis buffer A (+) (50 mM Tris-HCl (pH 7.4), 20 mM N-methylmaleimide, 1 mM DTT, 1% (v/v) Triton X-100, and Protease inhibitor cocktail) was added, and the cell lysate was collected. Homogenization and centrifugation (3,000 rpm, 10 minutes, 4 °C) were then performed, and the residue was removed. A part of the cell lysate collected was quantified for proteins with the Bradford method, and the remainder was mixed with SDS sample buffer (50 mM Tris-HC1, pH 6.8, 2% SDS, 2.5% mercaptoethanol, 10% glycerol, 0.01% bromophenol blue), and stored frozen at −30° C. The prepared sample was subjected to 7.5% SDS-polyacrylamide electrophoresis, the 7.5% SDS-polyacrylamide gel after electrophoresis was transferred to a membrane, and the transfer was confirmed with
Ponceau S solution. After the transfer was confirmed, Western blot analysis employing rabbit anti-human ACE2 antibody (Abcom, ab108252) and HRP-labeled anti-rabbit IgG secondary antibody (Cell Signaling Technology, 7074S) was performed by conventional means.
As internal standards, each sample was subjected to 7.5% SDS-polyacrylamide electrophoresis, the 7.5% SDS-polyacrylamide gel after electrophoresis was transferred to a membrane, and the transfer was confirmed with Ponceau S solution. After the transfer was confirmed, Western blot analysis employing mouse anti-human actin antibody (MP biomedicals, 691001) and HRP-labeled anti-mouse IgG secondary antibody (Cell Signaling Technology, 7076S) was performed by conventional means. […]

Molecule | amount of ACE2 protein expressed (Experiment 1, ALA 1 mM, 48 hours) | amount of ACE2 protein expressed (Experiment 2, ALA 1 mM) | amount of ACE2 protein expressed (Experiment 2, SFC only 0.5 mM)
Cl.NCC(=O)CCC(=O)O [ALA, 5-aminolevulinic acid hydrochloride salt] | significantly reduced | reduced | 
sodium ferrous citrate [SFC] |  |  | no reduction
